Data on one molecule can be found in patent US20040167226A1, “Methods for the treatment of pain and traumatic injury using benzamides and compositions containing the same” (priority 2002, published 2004).

Series [1] can be described thus: Absolute oral bioavailability and blood t1/2 of Compound A. The format is in vivo, rats. The note with it: rat, whole blood. The procedure:
The absolute oral bioavailability of Compound A was determined by comparing the area-under-the-curve (“AUC”) following a 20 mg/kg IV dose of Compound A (2 ml/kg, 75% PEG solution) to a 20 mg/kg dose of Compound A dissolved in 1% methyl cellulose. Blood concentrations were determined at 0, 0.083, 0.15, 0.5, 1, 2, 4, 8, and 24 hours post-IV dose and 0, 0.5, 1, 2, 4 and 8 hours post-oral dose. Four animals were dosed orally and four animals were dosed intravenously.
In another experiment, six rats were orally dosed with 30 mg/kg of Compound A dissolved in 1% methyl cellulose. Blood samples were taken at 0.5, 1, 2, 5, 8, 12, 16, 20 and 24 hours. The apparent t1/2 for Compound A in the blood was 8 hours. This is a very long t1/2 for a drug in rats and is a good predictor of once-a-day dosing for Compound A in humans. Such a dosing regimen would be a significant therapeutic advantage in the clinic.
The blood samples were analyzed by HPLC. Detection was by UV at 262 nm. Responses were converted to concentrations by comparison to responses from calibration standards injected onto the column. The resulting concentrations were used to calculate the AUC.

The test system of series [2] is dorsal hemisection spinal cord injury. In words: Spinal cord injury, T8 dorsal hemisection / over dorsal hemisection, BBB locomotor score. The class given is in vivo, Sprague-Dawley rats. The note with it: rats. The procedure:
Compound A was tested in both the rat dorsal hemisection (Guth, L. et al. (1980), J. Neurosurgery 52: 73-86) and contusion models (Scheff, S. W. (2003), J. Neurotrauma 20: 179-193) for evaluation of efficacy. These models are widely used in the field of spinal cord injury and replicate many of the pathological aspects found in humans who have sustained a spinal cord injury. Rats were subjected to an experimental spinal cord injury at T8, and were given Compound A shortly thereafter. Behavioral tests to assess the locomotion deficits were performed after the lesion. At the end of the experiment, animals were sacrificed and the spinal cord was collected for histopathological analysis. […] Histological assessment of the tissue at the site of injury was also made in both the drug treated and untreated group. In particular, subsequent to the behavioral measurement, spinal cord tissue from each animal was obtained and serial transverse tissue sections were stained with either anti-neurofilament antibody or antibodies specific for the inflammatory markers, tumor necrosis factor alpha (TNFα) and for the inducible form of nitric oxide synthetase (iNOS), followed by incubation with Alexa Fluor®-conjugated secondary antibodies.
Female rats (Sprague-Dawley, 250-300 g) were purchased from Charles River. One week before spinal cord injury, the animals were both trained and had baseline measures taken on a locomotor behavioral test, the BBB test (Beattie Basso Bresnahan method) (Basso, D. M. et al. (1995), J. Neurotrauma 12(1): 1-21).
The BBB score is a 21-point scale representing 21 stages of locomotor recovery after spinal cord injury. The scale is based on unique combinations of scored behaviors, ranked according to time of appearance after injury. The score can be divided into three parts: from 0-8, the scores emphasize voluntary movements of hindlimb joints; from 8-14, the scores represent standing and stepping with progressively better forelimb-hindlimb coordination; from 15-21, the scores indicate greater strength and better foot placement and balance. […]

A short description of series [3]: Brain-blood distribution of Compound A in the mouse. The class given is in vivo. The note with it: brain / whole blood, single po dose 30 mg/kg, n = 5, read-out: Brain/Blood Ratio (Mean ± SD). The procedure:
Blood-brain distribution of Compound A was assessed in the mouse, rat, and squirrel monkey by determining the concentrations of Compound A in blood and brain tissue at specific times post dose. Rats and mice received a single po dose of 30 mg/kg. The monkeys received a twice-daily 10 mg/kg po dose of Compound A for a total of 5 weeks prior to sacrifice. Brain to blood ratios for Compound A, as shown below in Table 4, show high penetration of the blood-brain barrier.

Each structure is given as a SMILES string. Entries after “also recorded” stand apart in the source; their conditions may differ.

The term bioavailability denotes the share of a dose that reaches the circulation, judged against a reference dose that is usually intravenous. `CC(=O)Nc1ccc(C(=O)NC(C)(C)C)cc1` [Compound A, N-tert-butyl-4-acetamidobenzamide]: in series [1] (AUC of 20 mg/kg oral (1% methyl cellulose) vs 20 mg/kg IV (75% PEG), read-out: absolute bioavailability through oral dosing), the bioavailability was found to be 52%. In addition, the half-life in series [1] (rats, 30 mg/kg oral in 1% methyl cellulose, read-out: apparent t1/2 in the blood (converted)) was 8 h. In addition, the “neurological function, BBB score” value in series [2] (SCI Study No. 1, 14 day dorsal hemisection (1.5 mm), i.p. BID 5 days, 75% PEG200 formulation) was “significant improvement in neurological function”; in series [2] (SCI Study No. 2, 21 day over dorsal hemisection (2 mm), 20 mg/kg BID i.p. 5 days, 75% PEG200 formulation), “significant improvement in neurological function”; in series [2] (SCI Study No. 3, 5 week over dorsal hemisection, 20 mg/kg BID i.p. 5 days, 50% PEG400/25% ETOH/25% dH2O, 20 mg/kg), “significant improvement in neurological function; also recorded: robust acute and long-term effects up to 5 weeks”. Also, the Kp at 0.5 h in series [3] (0.5 h post-dose) is 0.79 ± 0.05. Moreover, the Kp at 1 h in series [3] (1.0 h post-dose) came out at 0.8 ± 0.05. For the same molecule, the Kp at 2 h in series [3] (2.0 h post-dose) is 0.76 ± 0.06.
